# Source: patent US20130172847A1, “Compositions for Providing Vitamin D Year Round and Uses Thereof” (priority 2002, published 2013)
# Tests used:
# [1] = Conversion of 7-DHC and/or T3 to PreD3 in cream under artificial UVB light (simulates summer sunlight); assay type: physicochemical; settings: for % Yield / PreD3 Formed: Cream (1 g), artificial UVB 2 min
# Description: (§1) In contrast, compositions comprising increasing amounts of T3 produce increasing amounts of PreD3 when exposed to winter sunlight.
# (§2) Conversion of 7-Dehydrocholesterol (7-DHC) and/or Tachysterol (T3) to Previtamin D3 (PreD3)
# [2] = Conversion of 7-DHC and/or T3 to PreD3 in ethanol under winter natural sunlight; assay type: physicochemical
# Description: as §1, §2
# [3] = cited from earlier work
# [4] = Conversion of 7-DHC and/or T3 to PreD3 in cream under winter natural sunlight; assay type: physicochemical; settings: Cream (1 g); natural sunlight 5-60 min; start 7-DHC 1.0 μg, T3 0 μg
# Description: as §1, §2
# [5] = human skin or organic solvent exposed to 295 nm radiation; cited from earlier work
# [6] = Ethanol (1 ml), natural sunlight 90 min, start 7-DHC 0 μg, T3 10 μg
"% Yield ([1]; start 7-DHC 0 μg, T3 1 μg)","PreD3 Formed ([1]; start 7-DHC 0 μg, T3 1 μg)","% Yield [2, 6]","PreD3 Formed [2, 6]",SMILES,"% Yield ([1]; start 7-DHC 1.0 μg, T3 0 μg)","PreD3 Formed ([1]; start 7-DHC 1.0 μg, T3 0 μg)",conversion to PreD3 when exposed to artificial UVB light (in words) [1],"% Yield ([2]; Ethanol (1 ml), natural sunlight 90 min, start 7-DHC 10 μg, T3 0 μg)","conversion to PreD3 when exposed to winter sunlight (in words) ([2]; winter natural sunlight, summary of the table)",portion of tachysterol among photoproducts ([3]; exposed to light in the range of 254 nm),"previtamin D3 produced ([3]; irradiated at 0° C. with 254 nm light, thereafter (0° C.) with 350 nm light)",% Yield [4],provitamin D3 converted to previtamin D3 [5]
–,–,–,–,"CC(C)CCC[C@@H](C)[C@H]1CC[C@H]2C3=CC=C4C[C@@H](O)CC[C@]4(C)[C@H]3CC[C@]12C [7-DHC, 7-Dehydrocholesterol]",26%,0.26 µg,converted to PreD3,0%,inefficiently converted to PreD3,about 75%,≤ 83%,0%,up to 65%
52%,0.52 µg,77%,7.1 µg,"CC1=C(/C=C\C2=CCC[C@]3(C)[C@@H]([C@H](C)CCCC(C)C)CC[C@@H]23)C[C@@H](O)CC1 [T3, Tachysterol]",–,–,converted to PreD3,–,–,–,–,–,–
